Entries after “also recorded” stand apart in the source; their conditions may differ.
What was measured:
[1] = 2015, cited from earlier work
Excerpt: OXT is a downstream target of the adipose tissue hormone leptin.

[2] = Dose escalation: body weight change; type: in vivo, male DIO Sprague Dawley rats; conditions: sc once daily
Experimental: (§1) Sprague Dawley rats (male, ∼4 weeks of age, 51–75 g body weight) were switched from standard chow to a high fat diet (Research Diets, Diet # D12492, 60, 20, 20%kcal from fat, protein, and carbohydrate, respectively, 5.21 kcal/g; stored at −20°C). The rats were maintained on this diet for approximately 15 weeks prior to the start of experiments to develop a diet-induced overweight (DIO) model. Animals were individually housed on a 12 h/12 h light/dark cycle (lights on at 04:00 h) in a temperature (23°C) and humidity (mean 50%, SD 10%) controlled room. All body weight measurements were made just prior to the start of the dark cycle.
(§2) Sequential rounds of a 3-day baseline phase (vehicle treated), a 3-day treatment phase, and a washout phase (2–5 days as necessary) were tested. […] High fat diet was accessible to the rats from all but the last 6 h of the light cycle and water was provided ad libitum. This daily period of food restriction was used to prevent incidental feeding in the event animals were disturbed from their sleep by noise from surrounding rooms. […] Food and kaolin intake were continuously recorded using AccuScan DietMax (currently OmniTech Electronics, Inc., Diet System) cages. […] Body weight was recorded, and treatment injections were administered just prior to the start of the dark cycle.

Toxicity / mortality = type: in vivo; conditions: rat, in vivo, sc
[3] = cited from earlier work
Excerpt: (§3) Finally, the potential for toxic side effects upon chronic administration at high concentration and/or f ...

[4] = Long-term (28-day) drug intervention: body weight; type: in vivo, male DIO Sprague Dawley rats
Experimental: as §1
(§4) Male DIO Sprague Dawley rats (n = 24) were generated as outlined above and were 644.5 g (50 g) at the start of drug treatment. The animals were divided into three treatment groups (n = 8 each) balanced for body weight, body weight gain during baseline, food intake, and Lee Index [body weight^(1/3)/snout to anus length (mm)] ([Lee, 1929]; [Simson and Gold, 1982]) as an indicator of adiposity (Figure 2). In a subset of the animals (n = 5 per group, balanced for prior mentioned criteria), Mini-Mitter transponders (PDT-4000 E-Mitter, Respironics Inc.) were implanted posterior to the left scapula at least 9 days prior to start of baseline measures to ensure sufficient recovery time. Body temperature and gross motor activity were continuously recorded via these transponders. […] High fat diet and water were provided ad libitum and intake was recorded with daily hopper and water bottle weighs at time of body weight assessment just prior to drug administration. Blood samples were taken at start of intervention by tail vein bleeding and via cardiac puncture under an isoflurane induced surgical plane of anesthesia at euthanasia. Animals were euthanized on treatment day 29, 4 h after receiving a dose of their assigned treatment, via decapitation under isoflurane anesthesia immediately following blood draw. Body composition was assessed on carcasses.
From treatment day 8 on the doses were maintained to assess long-term efficacy at a therapeutically meaningful dose.

hOXTR = test system: hOXTR; set-up: method as in 2 sources, one per row (each row's own in cited_ref): ref Wiśniewski et al. (2014) ||| ref Modi et al. (2016); conditions: OXT; ref Wiśniewski et al. (2014); cited from earlier work
[5] = set-up: method as in Freeman et al., 2016; conditions: peripheral administration, macaques; ref Freeman et al., 2016; cited from earlier work
[6] = Long-term: body composition of carcasses by quantitative magnetic resonance; type: in vivo, male DIO Sprague Dawley rats
Excerpt: as §4
Body composition (total and relative fat mass, lean mass, and water content) was assessed on carcasses from the long-term drug intervention study using Quantitative Magnetic Resonance (EchoMRI 4-in-1, Echo Medical Systems, Houston, TX) at the Rodent Metabolic and Behavioral Phenotyping Core at the VA Puget Sound Health Care System (VAPSHCS).

[7] = Dose escalation: food intake; type: in vivo, male DIO Sprague Dawley rats
Experimental: as §1
(§5) Sequential rounds of a 3-day baseline phase (vehicle treated), a 3-day treatment phase, and a washout phase (2–5 days as necessary) were tested. […] High fat diet was accessible to the rats from all but the last 6 h of the light cycle and water was provided ad libitum. This daily period of food restriction was used to prevent incidental feeding in the event animals were disturbed from their sleep by noise from surrounding rooms. To assess a potential pica response (nausea/visceral malaise) in animals, powdered kaolin (Sigma-Aldrich, K1512) was made available on drug treatment days with a restriction period similar to the high fat diet. Prior to the first experiment, rats were provided access to kaolin for 2 days so that they could familiarize themselves with it prior to start of testing. Food and kaolin intake were continuously recorded using AccuScan DietMax (currently OmniTech Electronics, Inc., Diet System) cages. The high fat diet was compressed in the food tray to form a solid block of food. This allows for more accurate meal size measurements by preventing the animals from removing entire pellets at time. All food and kaolin intake data were binned into 15-min intervals for analysis and the start of the 24-h food intake period aligned to the lights turning off in the animal room. Body weight was recorded, and treatment injections were administered just prior to the start of the dark cycle.

hV1aR = test system: hV1aR; set-up: method as in 3 sources, one per row (each row's own in cited_ref): ref Wiśniewski et al. (2014) ||| ref Modi et al. (2016) ||| ref Modi et al., 2016; conditions: OXT; ref Wiśniewski et al. (2014); cited from earlier work
[8] = test system: OXTR compared with the V1aR; set-up: method as in Akerlund et al., 1999; conditions: ref Akerlund et al., 1999; cited from earlier work
Excerpt: as §3

[9] = Dose escalation: water intake; type: in vivo, male DIO Sprague Dawley rats; conditions: sc once daily; ASK1476 F(1.80, 12.61) = 3.15, p = 0.082; OXT F(1.68, 11.72) = 4.05, p = 0.086
Experimental: as §1, §2

[10] = Dose escalation: kaolin intake (pica, nausea/visceral malaise); type: in vivo, male DIO Sprague Dawley rats
Experimental: as §1, §5

[11] = Long-term: gross motor activity and body temperature (Mini-Mitter transponders); type: in vivo, male DIO Sprague Dawley rats; conditions: 28-day study, n = 5 per group, first 12 days analysed
Excerpt: as §4
For comparisons of mean longitudinal changes in body temperature and activity, only the first 12 days of treatment, divided into three 4-day phases, were included in the analysis. These 4-day phases allowed for analyses to consider the ASK1476 dose titration.

Substance: oxytocin [OXT]
- food intake, energy expenditure and weight gain ([1]; peripheral administration, diet-induced and genetically obese rodent models, ref Maejima et al., 2011, Morton et al., 2012, Blevins et al.): reduces food intake, enhances energy expenditure, and prevents or reduces weight gain
- energy expenditure / weight loss in diet-induced obese non-human primates ([1]; ref Blevins et al.): elicits weight loss, in part, by increasing energy expenditure
- body weight gain across dosing spectrum ([2]; ASK1476 6-300 nmol/kg, OXT 20-1200 nmol/kg, 3 days): Significant reductions in body weight gain; also recorded: effective in reducing body weight gain across the dose spectrum
- interaction of treatment and dose on body weight change ([2]; ASK1476 F(2.08, 15.54) = 9.50, p = 0.002, OXT F(2.40, 16.79) = 16.98, p < 0.0001): significant interaction
- adverse effects or tolerability issues (Toxicity / mortality): No adverse effects or tolerability issues were observed
- half-life in vivo [3]: ~5 min
- compensatory weight gain / weight regain following nadir ([4]; 28-d treatment): significantly lower rates of weight regain following body weight nadir
- average day of body weight nadir ([4]; 28-day treatment, sc once daily): 14 days
- daily percent change of body weight from nadir, mean difference vs. vehicle ([4]; OXT: 95% CI −0.23 to 0.01, p = 0.069): −0.11%
- Body weight, post-treatment ([4]; after 28-day Tx, ASK1476 to 120 or OXT 600 nmol/kg/d sc, n = 8, Mean ± SD, oxytocin * p < 0.05 vs vehicle, ANOVA p 0.041): 615.143.2* g
- reduction in body weight, OXT 600 nmol/kg/d compared with ASK1476 30 and 60 nmol/kg ([4]; long-term study, titration phases): significantly greater reductions in body weight
- average daily individual percent change of body weight from nadir to end of treatment ([4]; mean, SD 0.04% ASK1476, 0.16% OXT, vehicle 0.34% (SD 0.05%)): 0.23%
- weight stability during final 20 days ([4]; treatment days 9-28): remained weight stable
- EC50 (hOXTR): 2.3 nM
- entry into the CSF from the periphery [5]: only small amounts
- fat mass, difference vs vehicle ([6]; OXT 600 nmol/kg/d 28 days, 95% CI −97.2 to 7.2, p = 0.103): -45.0 g
- lean mass, difference vs vehicle ([6]; OXT 600 nmol/kg/d 28 days, 95% CU −109.8 to −5.4, p = 0.028): -57.6 g
- Lean mass, post-treatment ([6]; after 28-day Tx, n = 8, Mean ± SD, oxytocin * p < 0.05 vs vehicle, ANOVA p 0.015): 416.531.9* g
- reduction in 3-day averaged food intake ([7]; OXT 20 nmol/kg sc once daily vs 3-day saline baseline, n = 8, 95% CI −19.40 to −2.94, p = 0.0106): -11.17 kcal/day
- lowest dose with significant reduction in 3-day averaged food intake ([7]; sc once daily, 3 days, n = 8): 20 nmol/kg
- interaction of treatment and dose on 3-day averaged food intake ([7]; sc once daily, ASK1476 F(2.84, 19.86) = 6.52, p = 0.003, OXT F(1.89, 13.25) = 9.49, p = 0.003): significant interaction
- EC50 (hV1aR): 10 nM
- affinity for the OXTR compared with the V1aR [8]: fivefold greater affinity
- water intake [9]: not significantly affected
- visceral malaise signal (notably high kaolin intake in a few animals) ([10]; ASK1476 dosing spectrum): not observed in any
- kaolin intake at low doses ([10]; low doses, sc once daily): below 4 g/d
- kaolin intake, effect of treatment ([10]; sc once daily, ASK1476 6-300 nmol/kg F(1.80, 12.59) = 2.26, p = 0.148, OXT 20-1200 nmol/kg F(1.51, 10.52) = 1.73, p = 0.223): no significant effect of treatment
- locomotor activity or body temperature [11]: did not find any evidence
- locomotor activity or body temperature ([11]; listed as oxytocin): no effects were detected on locomotor activity or body temperature

Source: publication PMC8502973 (Frontiers in Physiology, 2021)
